We go through one compound from patent US10583087B2, “Pharmaceutical composition for oral administration” (ASTELLAS PHARMA INC., priority 2015, dated 2020).

Series [1] is described as follows: Solubility of compound A in JP dissolution test fluids. Format: physicochemical.
The nature of series [2]: Behaviour of compound A upon contact with a solvent (gelation). The note with it: solvent such as water. It is filed as physicochemical.

In brackets after ≈: the same amount, converted by molar mass. Where two headings read alike, the source gives them in different places.

With `CC[C@@H]1CCCN1Cc1sc(NC(=O)c2cnc(N3CCC(C(=O)O)CC3)cn2)nc1-c1ccc(OC)c(C(F)(F)F)c1` [Compound A, 1-{5-[(5-{[(2R)-2-ethylpyrrolidin-1-yl]methyl}-4-[4-methoxy-3-(trifluoromethyl)phenyl]-1,3-thiazol-2-yl)carbamoyl]pyrazin-2-yl}pyperidine-4-carboxylic acid], the “pH dependence of solubility” value in series [1] is “pH-dependent”. Moreover, the solubility is around 17.8 µg/mL (≈ 28.8 µM) in series [1] (aqueous buffer, second fluid for a dissolution test of the Japanese Pharmacopoeia, JP2 (pH 6.8), read-out: solubility in a neutral pH range) and around 44.1 µg/mL (≈ 71.3 µM) in series [1] (simulated gastric fluid, first fluid for a dissolution test of the Japanese Pharmacopoeia, JP1 (pH 1.2), read-out: solubility in an acidic pH range). The “gelation upon contact with a solvent” value in series [2] is “gelled upon contact with a solvent”.

Broadly, the solubility is the concentration that dissolves in the medium under given conditions.
